Laboratory results reported in patent publication US11166946B2 (CURATIS AG, priority 2018, dated 2021).
Read-outs that look alike come from different tables or passages of the source.

What was measured:
mouse = settings: in vivo, cited from earlier work
mouse, rat and dog = settings: cited from earlier work
[1] = single administration 300 mg, human subjects; cited from earlier work
platelets = settings: in vitro; cited from earlier work
rat = settings: in vivo, cited from earlier work
[2] = test system: patients presenting with migraine with aura; experiment: Randomized, double-blind, placebo controlled crossover study, aura events; type: in vivo, human
Experimental: A multi-center, randomized, double-blind, placebo controlled crossover study was conducted with picotamide. […] The overall study duration was 7×4 weeks. […] “Aura Events” was one of the parameters that was measured. […] These observations were particularly observed in a subgroup of patients (moderate patients) that on average had 3 to 6 aura events per month prior to study enrollment. Patients with less than 3 aura events per month could be considered mild patients and would therefore benefit to a lesser degree from treatment. Patients with 7 or more aura events could be considered severe patients that are difficult to treat.

[3] = test system: patients with peripheral vascular disease; settings: 300 mg, PO, t.i.d., 18-month period, 2,304 patients; cited from earlier work
[4] = oral administration; biphasic clearance; cited from earlier work

## COc1ccc(C(=O)NCc2cccnc2)cc1C(=O)NCc1cccnc1 [picotamide, 4-methoxy-N,N′-bis(pyridin-3-ylmethyl)benzene-1,3-dicarboxamide]
mouse; ip
  LD50: 942 ± 29 mg/kg
mouse; po
  LD50: > 3,000 mg/kg
mouse, rat and dog; IP and PO, mouse, rat and dog
  tolerability after subacute and chronic treatment: well tolerated
mouse, rat and dog; in vivo
  embryotoxic or teratogenic effects: did not induce embryotoxic or teratogenic effects
[1]
  time to reach maximum concentration (Tmax): 30 to 45 min
platelets
  inhibition of platelet aggregation, degranulation and TxB2 production: inhibits in vitro platelet aggregation, degranulation, and TxB2 production, in a dose dependent manner
rat; ip
  LD50: 685 ± 27 mg/kg
rat; po
  LD50: > 3,000 mg/kg
[2]; 300 mg twice daily 3×4 weeks, then placebo (Sequence A)
  number of auras (aura events): reduces the number of auras even after picotamide administration
[2]; Sequence A, after 3×4 weeks of picotamide
  duration of continued improvement after switch to placebo: continued to improve for another 2×4 weeks
[3]
  effectiveness and safety: effective and well-tolerated antiplatelet drug with an incidence of adverse reactions similar to that of placebo

## COc1ccc(C(=O)NCc2cccnc2)cc1C(=O)NCc1cccnc1 [picotamide monohydrate]
[4]
  plasma clearance half-life, first rapid phase: about 2 hours
